Measurements reported in patent US20070265208A1, “Association of calpain inhibitors and reactive oxygen species trapping agents” (priority 2000, published 2007).

What was measured:
[1] = tested on: human neuroblastomas SHSY5Y; experiment: Protection from necrosis induced by maitotoxin, SHSY5Y (wst-1 viability); assay type: cell-based; conditions: for Protection from necrosis induced by MTX: SHSY5Y, n=2, 0.1 nM maitotoxin; for Protection from necrosis induced by MTX on SHSY5Y: n = 8, single product at 100 μM
Experimental: Human neuroblastomas SHSY5Y and rat glial cells C6 are seeded at 25 000 cells per well in 96-well plates in DMEM 10% FBS for 24 hours. The L6 rat myoblasts are seeded at 1000 cells per well in DMEM 10% FBS on 96-well microplates coated beforehand with gelatin 0.5% PBS. After culture for 3 days the medium is removed and replaced with a differentiation medium (DMEM+10 μg/ml of insulin+100 μg/ml of transferrin). 50 μl of product A plus 50 μl of solvent or 50 μl of product B are placed in the wells. After incubation for 1 hour at 37° C. under an atmosphere of 5% CO2, 10 μl of maitotoxin is added in order to obtain a final concentration of 0.1 nM to 1 nM (according to the cell type). After incubation for 3 hours at 37° C. under an atmosphere of 5% CO2, the cell viability is determined by adding 10 μl of tetrazolium salts (wst-1, Roche, ref: 1644807). The tetrazolium salts are cleaved into formazan molecules by mitochondrial dehydrogenases. The quantity of formazan formed is directly correlated to the number of metabolically active cells in the culture. Measurement of the absorbance of the formazan is carried out using a multiwell photometer at a wavelength of 420 nm against a reference wavelength of 620 nm.
The theoretical effect was obtained by multiplying the percentage of dead cells in the presence of product A by the percentage of dead cells in the presence of product B (Table 3). The percentage protection against cell death induced by MTX being the percentage of cells kept alive in the presence of the product or products.
In a first series of experiments, the concentration of product A in Example 1 is fixed (100 μM), product B is added at concentrations varying from zero to 100 μM (Table 4A). In a second series of experiments, product B of Example 1 is fixed at 100 μM, product A is added at concentrations varying from zero to 100 μM (Table 4B).

[2] = tested on: calpain activity in human neuroblastomas (SHSY5Y); experiment: In situ calpain activity in human neuroblastomas SHSY5Y stimulated by maitotoxin; assay type: cell-based; conditions: read-out: Inhibition human calpain I, in situ (SHSY5Y) [IC50 (nM)]; n = 6; maitotoxin 1 nM; 4 h
Experimental: Human neuroblastomas SHSY5Y and rat glial cells C6 are seeded at a rate of 50,000 and 25,000 cells respectively per well on 96-well plates in DMEM 10% FBS. The next day, the cells which have adhered are washed 3 times in DMEM medium without serum and 40 mM Hepes. 100 microlitres of product B is placed in the wells. After incubation for 1 hour at 37° C. under an atmosphere of 5% CO2, 10 μl containing the fluorescent substrate of calpain (Suc-Leu-Tyr-AMC) and maitotoxin (Sigma, ref: M-9159), in order to obtain a final concentration in the well of 100 μM and of 1 nM respectively are added.
In order to determine the total activity of the cell enzyme, wells containing no product are added to the plate (100 μL DMSO 100th plus 10 μl of MTX and substrate). The background noise is determined by adding control wells with no MTX. Each concentration of the products (0.3 μM to 200 μM for the SHSY5Y's and 0.01 μM to 100 μM for the C6's) is tested in triplicate. The plates are shaken, the fluorescence is read at 380/460 nm using the Victor at T zero. Incubation takes place for four hours for the SHSY5Y and 1 hour 30 minutes for the C6 cells at 30° C. in darkness.

CC(C)C[C@@H](C=O)NC(=O)[C@H](CC(C)C)NC(=O)OCc1ccccc1 [EXAMPLE 1 B, benzyl (1S)-1-({[(1S)-1-formyl-3-methylbutyl]amino}carbonyl)-3-methylbutylcarbamate]
Protection from necrosis induced by MTX ([1]; single compound at 12.5 μM): 6.89 ± 1.51%
Protection from necrosis induced by MTX ([1]; single compound at 25 μM): 6.94 ± 0.2%
Protection from necrosis induced by MTX ([1]; single compound at 50 μM): 9.01 ± 0.83%
Protection from necrosis induced by MTX ([1]; single compound at 100 μM): 17.52 ± 2.69%
Protection from necrosis induced by MTX on SHSY5Y [1]: 12.87 ± 3.72%
Protection from necrosis induced by MTX on SHSY5Y ([1]; listed as Z-Leu-Leu-H): not active
IC50 [2]: 13400 ± 2390 nM
